Results from patent US20080214599A1, “Use of Par-1/Par-4 Inhibitors for Treating or Preventing Vascular Diseases” (priority 2005, published 2008).

Assays:
Format in all cases: in vivo, human
CD31 (PECAM-1) = test: Flow cytometry, platelet surface expression of CD31 (PECAM-1) in patients undergoing coronary stenting
Experimental: (§1) The study sought to compare the antiplatelet properties of prasugrel and clopidogrel in the frame of a Phase 2 randomized trial. Specifically, nine patients undergoing coronary stenting were randomized to one of three arms of prasugrel (40-60-60 mg loading, and 7.5-10-15 mg maintenance daily dose), or clopidogrel (300 mg/75 mg). Aspirin and GP IIb/IIIa inhibitors were allowed.

PAR-1/PAR-4 (WEDE15) = test: Flow cytometry, WEDE15 (PAR-1/PAR-4) in patients undergoing coronary stenting
Experimental: as §1

CD62p (P-selectin) = test: Flow cytometry, platelet surface expression of CD62p (P-selectin) in patients undergoing coronary stenting; set-up: CD62p (P-selectin), flow cytometry: unit not given here
Experimental: as §1

[1] = system: GPIIb/IIIa activity with PAC-1 antibody; test: GPIIb/IIIa activity with PAC-1 antibody in stented patients; settings: independent of the dosing regimen; vs patients treated with clopidogrel
Experimental: (§2) The study sought to compare the antiplatelet properties of prasugrel and clopidogrel in the frame of a Phase 2 randomized trial. Specifically, nine patients undergoing coronary stenting were randomized to one of three arms of prasugrel (40-60-60 mg loading, and 7.5-10-15 mg maintenance daily dose), or clopidogrel (300 mg/75 mg). Aspirin and GP IIb/IIIa inhibitors were allowed. […] Applicants believe the above results are significant and establish a correlation between use of CS-747 (prasugrel) and inhibition of the activity or activation of PAR-1 and/or PAR-4 receptors. […] The correlations or trends shown in table 1 are independent of aspirin or Gb-11b inhibitor use by some patients at baseline. Confounding effects by aspirin or GB-IIb/IIIA use at baseline should be absent at 30 days.

CD40 ligand = test: Flow cytometry, platelet CD40 ligand in patients undergoing coronary stenting; set-up: CD40 ligand, flow cytometry: unit not given here
Experimental: as §1

GPIIb/IIIa antigen = test: Surface expression of GPIIb/IIIa antigen in stented patients; settings: independent of the dosing regimen; vs patients treated with clopidogrel
Experimental: as §2

CD151+CD14 = test: Flow cytometry, CD151+CD14 in patients undergoing coronary stenting; set-up: unit not given here
Experimental: as §1

CD165 (GP37) = test: Flow cytometry, platelet CD165 (GP37) in patients undergoing coronary stenting; set-up: CD165 (GP37), flow cytometry: unit not given here
Experimental: as §1

Thrombospondin = test: Flow cytometry, platelet thrombospondin in patients undergoing coronary stenting; set-up: Thrombospondin, flow cytometry: unit not given here
Experimental: as §1

CD42 (GP-Ib) = test: Flow cytometry, platelet surface expression of CD42 (GP-Ib) in patients undergoing coronary stenting; set-up: CD42 (GP-Ib), flow cytometry: unit not given here
Experimental: as §1

PAR-1/PAR-4 (SPAN12) = test: Flow cytometry, SPAN12 (PAR-1/PAR-4) in patients undergoing coronary stenting
Experimental: as §1

[2] = system: platelets (collagen-induced aggregation); test: Collagen-induced platelet aggregation in stented patients; settings: independent of the dosing regimen; vs patients treated with clopidogrel
Experimental: as §2

[3] = system: platelets (ADP-induced aggregation); test: ADP-induced platelet aggregation in stented patients; settings: independent of the dosing regimen; vs patients treated with clopidogrel
Experimental: as §2

platelets = test: Ultegra Analyzer platelet function in stented patients; settings: independent of the dosing regimen; vs patients treated with clopidogrel
Experimental: as §2

[4] = 30 days after stent implantation
[5] = Baseline, patients undergoing coronary stenting
[6] = independent of the dosing regimen, vs patients treated with clopidogrel

## CC(=O)Oc1cc2c(s1)CCN(C(C(=O)C1CC1)c1ccccc1F)C2 (stereo not drawn) [prasugrel, 2-acetoxy-5-(α-cyclopropylcarbonyl-2-fluorobenzyl)-4,5,6,7-tetrahydrothieno[3,2-c]pyridine]
CD31 (PECAM-1); 4 hr after stent implantation
  CD31 (PECAM-1), flow cytometry: 52.5 ± 29.3
CD31 (PECAM-1); 24 hr after stent implantation
  CD31 (PECAM-1), flow cytometry: 52.8 ± 28.7
CD31 (PECAM-1); [4]
  CD31 (PECAM-1), flow cytometry: 24.6 ± 24.4
CD31 (PECAM-1); [5]
  CD31 (PECAM-1), flow cytometry: 69.9 ± 19.3
CD31 (PECAM-1); [6]
  Platelet inhibition by surface expression of PECAM-1, compared with clopidogrel: more potent platelet inhibition
PAR-1/PAR-4 (WEDE15); 4 hr after stent implantation
  WEDE15 (PAR-1/PAR-4), flow cytometry: 17.0 ± 6.2
PAR-1/PAR-4 (WEDE15); 24 hr after stent implantation
  WEDE15 (PAR-1/PAR-4), flow cytometry: 19.6 ± 8.4
PAR-1/PAR-4 (WEDE15); [4]
  WEDE15 (PAR-1/PAR-4), flow cytometry: 15.3 ± 5.9
PAR-1/PAR-4 (WEDE15); [5]
  WEDE15 (PAR-1/PAR-4), flow cytometry: 37.0 ± 9.8
CD62p (P-selectin); 4 hr after stent implantation
  CD62p (P-selectin), flow cytometry: 8.9 ± 3.3
CD62p (P-selectin); 24 hr after stent implantation
  CD62p (P-selectin), flow cytometry: 7.9 ± 1.4
CD62p (P-selectin); [4]
  CD62p (P-selectin), flow cytometry: 5.2 ± 2.3
CD62p (P-selectin); [5]
  CD62p (P-selectin), flow cytometry: 10.8 ± 4.1
CD62p (P-selectin); [6]
  Platelet inhibition by surface expression of P-selectin, compared with clopidogrel: more potent platelet inhibition
[1]
  Platelet inhibition by GPIIb/IIIa activity with PAC-1 antibody, compared with clopidogrel: more potent platelet inhibition
CD40 ligand; 4 hr after stent implantation
  CD40 ligand, flow cytometry: 4.8 ± 1.4
CD40 ligand; 24 hr after stent implantation
  CD40 ligand, flow cytometry: 4.6 ± 1.1
CD40 ligand; [4]
  CD40 ligand, flow cytometry: 3.7 ± 1.3
CD40 ligand; [5]
  CD40 ligand, flow cytometry: 6.9 ± 0.8
CD40 ligand; [6]
  Platelet inhibition by surface expression of CD40-ligand, compared with clopidogrel: more potent platelet inhibition
GPIIb/IIIa antigen
  Platelet inhibition by surface expression of GPIIb/IIIa antigen, compared with clopidogrel: more potent platelet inhibition
CD151+CD14; 4 hr after stent implantation
  CD151+CD14, flow cytometry: 60.1 ± 18.9
CD151+CD14; 24 hr after stent implantation
  CD151+CD14, flow cytometry: 62.7 ± 29.2
CD151+CD14; [4]
  CD151+CD14, flow cytometry: 61.8 ± 23.0
CD151+CD14; [5]
  CD151+CD14, flow cytometry: 73.0 ± 11.1
CD165 (GP37); 4 hr after stent implantation
  CD165 (GP37), flow cytometry: 17.8 ± 5.6
CD165 (GP37); 24 hr after stent implantation
  CD165 (GP37), flow cytometry: 15.8 ± 5.7
CD165 (GP37); [4]
  CD165 (GP37), flow cytometry: 12.2 ± 2.8
CD165 (GP37); [5]
  CD165 (GP37), flow cytometry: 24.7 ± 2.8
CD165 (GP37); [6]
  Platelet inhibition by surface expression of GP37, compared with clopidogrel: more potent platelet inhibition
Thrombospondin; 4 hr after stent implantation
  Thrombospondin, flow cytometry: 6.4 ± 1.1
Thrombospondin; 24 hr after stent implantation
  Thrombospondin, flow cytometry: 6.7 ± 1.7
Thrombospondin; [4]
  Thrombospondin, flow cytometry: 4.0 ± 0.7
Thrombospondin; [5]
  Thrombospondin, flow cytometry: 7.3 ± 2.2
Thrombospondin; [6]
  Platelet inhibition by surface expression of thrombospondin receptor, compared with clopidogrel: more potent platelet inhibition
CD42 (GP-Ib); 4 hr after stent implantation
  CD42 (GP-Ib), flow cytometry: 138.7 ± 38.3
CD42 (GP-Ib); 24 hr after stent implantation
  CD42 (GP-Ib), flow cytometry: 154.0 ± 39.6
CD42 (GP-Ib); [4]
  CD42 (GP-Ib), flow cytometry: 110.0 ± 47.7
CD42 (GP-Ib); [5]
  CD42 (GP-Ib), flow cytometry: 145.9 ± 35.5
CD42 (GP-Ib); [6]
  Platelet inhibition by surface expression of GPIb, compared with clopidogrel: more potent platelet inhibition
PAR-1/PAR-4 (SPAN12); 4 hr after stent implantation
  SPAN12 (PAR-1/PAR-4), flow cytometry: 13.3 ± 2.5
PAR-1/PAR-4 (SPAN12); 24 hr after stent implantation
  SPAN12 (PAR-1/PAR-4), flow cytometry: 12.0 ± 2.7
PAR-1/PAR-4 (SPAN12); [4]
  SPAN12 (PAR-1/PAR-4), flow cytometry: 6.6 ± 1.7
PAR-1/PAR-4 (SPAN12); [5]
  SPAN12 (PAR-1/PAR-4), flow cytometry: 19.5 ± 5.4
[2]
  Platelet inhibition by collagen-induced aggregation, compared with clopidogrel: more potent platelet inhibition
[3]
  Platelet inhibition by ADP-induced aggregation, compared with clopidogrel: more potent platelet inhibition
platelets
  Platelet inhibition by Ultegra Analyzer, compared with clopidogrel: more potent platelet inhibition

## COC(=O)[C@H](c1ccccc1Cl)N1CCc2sccc2C1 [clopidogrel, reference compound]
CD31 (PECAM-1); 4 hr after stent implantation
  CD31 (PECAM-1), flow cytometry: 41.6 ± 17.3
CD31 (PECAM-1); 24 hr after stent implantation
  CD31 (PECAM-1), flow cytometry: 38.0 ± 18.9
CD31 (PECAM-1); [4]
  CD31 (PECAM-1), flow cytometry: 58.6 ± 8.4
CD31 (PECAM-1); [5]
  CD31 (PECAM-1), flow cytometry: 62.9 ± 12.2
PAR-1/PAR-4 (WEDE15); 4 hr after stent implantation
  WEDE15 (PAR-1/PAR-4), flow cytometry: 20.9 ± 9.3
PAR-1/PAR-4 (WEDE15); 24 hr after stent implantation
  WEDE15 (PAR-1/PAR-4), flow cytometry: 25.7 ± 9.6
PAR-1/PAR-4 (WEDE15); [4]
  WEDE15 (PAR-1/PAR-4), flow cytometry: 16.5 ± 3.2
PAR-1/PAR-4 (WEDE15); [5]
  WEDE15 (PAR-1/PAR-4), flow cytometry: 30.2 ± 10.9
CD62p (P-selectin); 4 hr after stent implantation
  CD62p (P-selectin), flow cytometry: 10.0 ± 3.5
CD62p (P-selectin); 24 hr after stent implantation
  CD62p (P-selectin), flow cytometry: 9.8 ± 3.6
CD62p (P-selectin); [4]
  CD62p (P-selectin), flow cytometry: 9.6 ± 1.4
CD62p (P-selectin); [5]
  CD62p (P-selectin), flow cytometry: 10.4 ± 3.4
CD40 ligand; 4 hr after stent implantation
  CD40 ligand, flow cytometry: 4.1 ± 1.3
CD40 ligand; 24 hr after stent implantation
  CD40 ligand, flow cytometry: 4.2 ± 1.3
CD40 ligand; [4]
  CD40 ligand, flow cytometry: 6.5 ± 1.6
CD40 ligand; [5]
  CD40 ligand, flow cytometry: 5.5 ± 1.3
CD151+CD14; 4 hr after stent implantation
  CD151+CD14, flow cytometry: 62.6 ± 14.4
CD151+CD14; 24 hr after stent implantation
  CD151+CD14, flow cytometry: 69.5 ± 22.4
CD151+CD14; [4]
  CD151+CD14, flow cytometry: 66.0 ± 9.5
CD151+CD14; [5]
  CD151+CD14, flow cytometry: 67.1 ± 14.5
CD165 (GP37); 4 hr after stent implantation
  CD165 (GP37), flow cytometry: 17.8 ± 5.8
CD165 (GP37); 24 hr after stent implantation
  CD165 (GP37), flow cytometry: 18.3 ± 4.2
CD165 (GP37); [4]
  CD165 (GP37), flow cytometry: 19.7 ± 3.0
CD165 (GP37); [5]
  CD165 (GP37), flow cytometry: 23.9 ± 5.2
Thrombospondin; 4 hr after stent implantation
  Thrombospondin, flow cytometry: 6.7 ± 2.0
Thrombospondin; 24 hr after stent implantation
  Thrombospondin, flow cytometry: 7.8 ± 2.8
Thrombospondin; [4]
  Thrombospondin, flow cytometry: 8.1 ± 1.3
Thrombospondin; [5]
  Thrombospondin, flow cytometry: 7.1 ± 2.0
CD42 (GP-Ib); 4 hr after stent implantation
  CD42 (GP-Ib), flow cytometry: 134.2 ± 37.3
CD42 (GP-Ib); 24 hr after stent implantation
  CD42 (GP-Ib), flow cytometry: 129.8 ± 37.6
CD42 (GP-Ib); [4]
  CD42 (GP-Ib), flow cytometry: 168.0 ± 48.0
CD42 (GP-Ib); [5]
  CD42 (GP-Ib), flow cytometry: 135.2 ± 35.1
PAR-1/PAR-4 (SPAN12); 4 hr after stent implantation
  SPAN12 (PAR-1/PAR-4), flow cytometry: 16.2 ± 5.0
PAR-1/PAR-4 (SPAN12); 24 hr after stent implantation
  SPAN12 (PAR-1/PAR-4), flow cytometry: 17.1 ± 5.3
PAR-1/PAR-4 (SPAN12); [4]
  SPAN12 (PAR-1/PAR-4), flow cytometry: 6.2 ± 0.9
PAR-1/PAR-4 (SPAN12); [5]
  SPAN12 (PAR-1/PAR-4), flow cytometry: 18.0 ± 4.8
